Drawing on ChEMBL document CHEMBL4483862, “Open-source discovery of chemical leads for next-generation chemoprotective antimalarials” (2018), this text covers IC50 and IC90 for 39 compounds.

The test concerns Plasmodium berghei. As to the kind of experiment: Luciferase/luciferin-expressing antifolate-resistant parasites were used to infect a culture of HepG2 cells that were pre-incubated with compounds. Infected hepatocytes emit light due to the luciferase reaction. Assay results are presented as the percent inhibition of light emission compared to control. […]. The class given is functional. Particulars: sporozoite; for IC90: read-out: LUCIFERASE INFECTION ASSAY - IC90.

The mark [1] stands for this setting: read-out: LUCIFERASE INFECTION ASSAY - IC50.

Broadly, the IC50 is the concentration that inhibits the measured activity by half. Broadly, the IC90 is the concentration needed for an effect of 90%. As for `CCOc1cc(/C=C2\CN(C)C/C(=C\c3ccc(O)c(OCC)c3)C2=O)ccc1O`, the IC90 stood at 6.75 µM. For the same compound, the IC50 (HEPG2TOX_HILL_SLOPE 12.2, HEPG2TOX_R_SQUARED 0.94, PBLUC_HILL_SLOPE 1.92, PBLUC_R_SQUARED 0.794, read-out: LUCIFERASE INFECTION ASSAY - IC50) was found to be 2.16 µM.

As for `CC1CCC(C(C)C)C(N(Cc2ccccc2)C(=O)c2cccc3ccccc23)C1` (configuration not stated), the IC90 was greater than 8.26 µM. In addition, the IC50 (FFLUC_HILL_SLOPE 35.1, FFLUC_R_SQUARED 0.0345, HEPG2TOX_HILL_SLOPE 5.62, HEPG2TOX_R_SQUARED 0.422, PBLUC_HILL_SLOPE 0.939, PBLUC_R_SQUARED 0.258, read-out: LUCIFERASE INFECTION ASSAY - IC50) worked out at 6.39 µM.

`COc1cccc(-n2c(=O)c3ccccc3n3c(SCc4cc(=O)n5ccsc5n4)nnc23)c1`: the IC90 is greater than 10 µM. The concentration for half-maximal inhibition (IC50) under setting [1] is greater than 10 µM.

`COc1ccc(C(=O)Nc2nonc2-c2ccc(F)cc2)cc1Cl`: the IC90 stood at 3.66 µM. Moreover, the IC50 under setting [1] is 3.16 µM.

As to `COc1ccc(CC(N)c2csc(NC(=O)Nc3ccccc3C(C)(C)C)n2)cc1` (configuration not stated), the IC90 turned out to be 4.27 µM. Further, where the note is “PBLUC_HILL_SLOPE 104, PBLUC_R_SQUARED 0.386, read-out: LUCIFERASE INFECTION ASSAY - IC50”, the IC50 was found to be 4.18 µM.

For the compound `Cc1nnc(NC(=O)CN2C(=O)COc3ccc(Cl)cc32)s1`, the IC90 is greater than 9.74 µM. The IC50 under setting [1] is greater than 9.74 µM.

For the compound `CN(C)c1nc(N)nc(COC(=O)c2cccc(Br)c2)n1`, the IC90 is greater than 10 µM. Under setting [1], the IC50 is greater than 10 µM.

Consider `Cc1cc(Nc2nc3ccccc3nc2N2CCN(/C=C/c3ccccc3)CC2)n(-c2ccccc2)n1`, for which the concentration for an effect of 90% (IC90) was greater than 10 µM. For the same compound, under setting [1], the IC50 is greater than 10 µM.

On to `Cc1cccc(C(=O)NC(C(=O)Nc2ccn(C)n2)C(C)C)c1` (configuration not stated), for which the IC90 is greater than 10 µM. For the same compound, the IC50 under setting [1] was greater than 10 µM.

With `COC(=O)C1=C(Nc2ccc(OS(=O)(=O)c3ccc(F)cc3F)cc2)CSC1`, the IC90 was greater than 7.72 µM. The IC50 under setting [1] is greater than 7.72 µM.

`CC(C)Cc1ccc(C(=O)CC2OC(=O)c3ccccc32)cc1` (configuration not stated): the IC90 was greater than 10.7 µM. For the same compound, the IC50 (FFLUC_HILL_SLOPE 1.52, FFLUC_R_SQUARED 0.66, PBLUC_HILL_SLOPE 3.96, PBLUC_R_SQUARED 0.504, read-out: LUCIFERASE INFECTION ASSAY - IC50) turned out to be 8.38 µM.

`O=C(Cn1cc(C(=O)c2ccccc2)c2ccccc21)Nc1ccc(F)cc1`: the IC90 was greater than 8.86 µM. Moreover, the IC50 (PBLUC_HILL_SLOPE 1.46, PBLUC_R_SQUARED 0.555, read-out: LUCIFERASE INFECTION ASSAY - IC50) is 3.31 µM.

Consider `CCCn1c(=O)c2ccccc2n2c(SCc3nc(=O)c4ccc(C(=O)O)cc4[nH]3)nnc12`, for which the IC90 is greater than 10 µM. Under setting [1], the IC50 is greater than 10 µM.

Take `Oc1cccc(-c2nccc3n[nH]c(-c4cccc(F)c4)c23)c1`: the IC90 is greater than 10 µM. Besides, for the setting “PBLUC_HILL_SLOPE 3.75, PBLUC_R_SQUARED 0.113, read-out: LUCIFERASE INFECTION ASSAY - IC50”, the IC50 was 6.03 µM.

As for `CC(C)c1ccc(-n2c(SCc3ccc([N+](=O)[O-])cc3)nnc2-c2ccc(C(C)(C)C)cc2)cc1`, the IC90 is greater than 6.78 µM. For the same compound, the IC50 under setting [1] is greater than 6.78 µM.

For `CCN1CCN(c2ccc(Cl)cc2NC(=O)c2sc(-c3ccccc3)nc2C)CC1`, the IC90 stood at 4.23 µM. For the same compound, for the setting “PBLUC_HILL_SLOPE 12.2, PBLUC_R_SQUARED 0.286, read-out: LUCIFERASE INFECTION ASSAY - IC50”, the IC50 was found to be 3.53 µM.

As to `COc1cc(/C=N/Nc2nc(Cl)c(Cl)cc2Cl)ccc1OCC(=O)N1CC(C)OC(C)C1` (configuration not stated), the IC90 was greater than 10 µM. Besides, under setting [1], the IC50 was greater than 10 µM.

For `O=C(CN1C(=O)NC(Cc2ccccc2)(c2ccccc2)C1=O)N1CCc2ccccc2C1` (configuration not stated), the IC90 was greater than 10 µM. Further, the concentration for half-maximal inhibition (IC50) (PBLUC_HILL_SLOPE 3.92, PBLUC_R_SQUARED 0.472, read-out: LUCIFERASE INFECTION ASSAY - IC50) was 7.9 µM.

On to `CCCNC(=O)c1c(NC(=O)c2ccc(Cl)cc2Cl)nc2ccccn12`, for which the IC90 was 2.94 µM. Also, the IC50 (FFLUC_HILL_SLOPE 16.3, FFLUC_R_SQUARED 0.135, HEPG2TOX_HILL_SLOPE 2.05, HEPG2TOX_R_SQUARED 0.922, PBLUC_HILL_SLOPE 37.2, PBLUC_R_SQUARED 0.437, read-out: LUCIFERASE INFECTION ASSAY - IC50) stood at 2.77 µM.

Consider `CCn1c(SCC(=O)Nc2cc(Cl)ccc2O)nnc1-c1ccncc1`, for which the IC90 is greater than 8.46 µM. Further, the IC50 under setting [1] is greater than 8.46 µM.

`Cc1ccc(Cn2ncc3c(C(=O)N4CCN(c5ncccn5)CC4)cc(C)nc32)cc1`: the IC90 was greater than 10 µM. Where the note is “HEPG2TOX_HILL_SLOPE 0.12, HEPG2TOX_R_SQUARED 0.204, PBLUC_HILL_SLOPE 1.61, PBLUC_R_SQUARED 0.516, read-out: LUCIFERASE INFECTION ASSAY - IC50”, the concentration for half-maximal inhibition (IC50) was found to be 8.29 µM.

For `CCN(CC)S(=O)(=O)c1cc(C(=O)Nc2nc3ccccc3[nH]2)n(C)c1`, the IC90 was 9.54 µM. The IC50 (HEPG2TOX_HILL_SLOPE 9.29, HEPG2TOX_R_SQUARED 0.829, PBLUC_HILL_SLOPE 13.1, PBLUC_R_SQUARED 0.63, read-out: LUCIFERASE INFECTION ASSAY - IC50) was determined as 8.06 µM.

For the compound `O=[N+]([O-])c1cc(Cl)ccc1Oc1c(Cl)cccc1Cl`, the IC90 was greater than 10.4 µM. The IC50 under setting [1] is greater than 10.4 µM.

For the compound `N#Cc1c(N=Cc2c(O)n(-c3ccc(Br)cn3)c(=O)c3ccccc23)sc2c1CCC2`, the IC90 was greater than 10 µM. Further, under “HEPG2TOX_HILL_SLOPE 5.03, HEPG2TOX_R_SQUARED 0.905, PBLUC_HILL_SLOPE 1.74, PBLUC_R_SQUARED 0.542, read-out: LUCIFERASE INFECTION ASSAY - IC50”, the IC50 came out at 6.14 µM.

On to `O=C(Nc1ccc(N2CCCC2)cn1)c1cccc(F)c1`, for which the IC90 was 0.0621 µM.

For the compound `Cc1ccc(S(=O)(=O)N2CCN(C(=O)C3CCN(c4nc5ccccc5o4)CC3)CC2)cc1C`, the IC90 is 2.62 µM. Also, the IC50 (HEPG2TOX_HILL_SLOPE 0.685, HEPG2TOX_R_SQUARED 0.962, PBLUC_HILL_SLOPE 3.7, PBLUC_R_SQUARED 0.71, read-out: LUCIFERASE INFECTION ASSAY - IC50) was 1.45 µM.

On to `Cc1ccc(C(C)CCN2CCC3(CC2)C(=O)N(CCCc2ccncc2)C(=O)N3CCC(C)C)o1` (configuration not stated), for which the IC90 is greater than 6.67 µM. Further, the IC50 (PBLUC_HILL_SLOPE 13.4, PBLUC_R_SQUARED 0.376, read-out: LUCIFERASE INFECTION ASSAY - IC50) is 6.51 µM.

With `CC(OC(=O)c1c2c(nc3ccccc13)/C(=C/c1cccs1)CCC2)C(=O)Nc1ccccc1C#N` (configuration not stated), the IC90 was 3.58 µM. Besides, the IC50 (FFLUC_HILL_SLOPE 1.58, FFLUC_R_SQUARED 0.34, HEPG2TOX_HILL_SLOPE 8.31, HEPG2TOX_R_SQUARED 0.803, PBLUC_HILL_SLOPE 17.4, PBLUC_R_SQUARED 0.614, read-out: LUCIFERASE INFECTION ASSAY - IC50) was determined as 3.16 µM.

In the case of `CCOc1cccc(-c2cn3c(-c4ccc5c(ccn5C)c4)cnc3cn2)c1`, the IC90 turned out to be 0.0637 µM. For the setting “HEPG2TOX_HILL_SLOPE 0.658, HEPG2TOX_R_SQUARED 0.817, PBLUC_HILL_SLOPE 2.41, PBLUC_R_SQUARED 0.611, read-out: LUCIFERASE INFECTION ASSAY - IC50”, the IC50 was 0.0256 µM.

Turning to `COC(=O)c1c(NC(=O)c2ccco2)c2cc(NC(C)Cc3ccccc3F)cnc2n1C` (configuration not stated), the IC90 was greater than 7.33 µM. Besides, the IC50 (HEPG2TOX_HILL_SLOPE 10.3, HEPG2TOX_R_SQUARED 0.591, PBLUC_HILL_SLOPE 7.35, PBLUC_R_SQUARED 0.509, read-out: LUCIFERASE INFECTION ASSAY - IC50) is 6.19 µM.

Regarding `CNc1ccc(CSc2ccc(C(F)(F)F)cn2)cc1C(F)(F)F`, the IC90 was greater than 9.01 µM. The IC50 under setting [1] was greater than 9.01 µM.

Turning to `COc1ccnc(N2CCN(C(c3ccccc3)c3ccccc3)CC2)c1C#N`, the IC90 was greater than 8.58 µM. The IC50 (PBLUC_HILL_SLOPE 3.87, PBLUC_R_SQUARED 0.686, read-out: LUCIFERASE INFECTION ASSAY - IC50) stood at 5.89 µM.

In the case of `CC(=O)c1csc(NC(=O)c2cc(C(C)C)nc3c2c(C)nn3C(C)(C)C)n1`, the IC90 was greater than 10 µM. Under setting [1], the IC50 is greater than 10 µM.

On to `CCn1c2ccccc2c2cc(NC(=O)COC(=O)CC3CCCC3)ccc21`, for which the IC90 was 9.1 µM. Further, where the note is “PBLUC_HILL_SLOPE 3.89, PBLUC_R_SQUARED 0.506, read-out: LUCIFERASE INFECTION ASSAY - IC50”, the IC50 was determined as 5.17 µM.

Consider `CC(=O)Nc1ccc(-c2cnc3ccc(-c4cccc(F)c4)nn23)cc1`, for which the IC90 came to 3.53 µM. Moreover, where the note is “HEPG2TOX_HILL_SLOPE 8.87, HEPG2TOX_R_SQUARED 0.791, PBLUC_HILL_SLOPE 12.1, PBLUC_R_SQUARED 0.742, read-out: LUCIFERASE INFECTION ASSAY - IC50”, the IC50 is 2.95 µM.

Take `O=C(NC1CC1)c1ccc(-c2cnc3cnc(-c4cccs4)cn23)cc1`: the IC90 is greater than 9.16 µM. Further, where the note is “PBLUC_HILL_SLOPE 1.19, PBLUC_R_SQUARED 0.184, read-out: LUCIFERASE INFECTION ASSAY - IC50”, the IC50 was greater than 9.16 µM.

As for `COc1ccc2[nH]cc(C(=O)CN3CCC(Cc4ccccc4)CC3)c2c1`, the IC90 is greater than 9.1 µM. Besides, the IC50 (PBLUC_HILL_SLOPE 15.2, PBLUC_R_SQUARED 0.148, read-out: LUCIFERASE INFECTION ASSAY - IC50) came to 8.48 µM.

Consider `C=CCNS(=O)(=O)c1ccc(C(=O)NCc2ccccc2OC(F)F)cc1`, for which the IC90 was greater than 10 µM. Besides, the IC50 under setting [1] is greater than 10 µM.

Consider `COc1ccc(C(N)=O)c(OCC(=O)c2cc(C)n(Cc3ccccc3)c2C)c1`, for which the IC90 worked out at 9.51 µM. For the same compound, the IC50 (HEPG2TOX_HILL_SLOPE 1.79, HEPG2TOX_R_SQUARED 0.962, PBLUC_HILL_SLOPE 4.42, PBLUC_R_SQUARED 0.333, read-out: LUCIFERASE INFECTION ASSAY - IC50) was 5.78 µM.
